Assay results from patent US10385065B2, “Antibacterial compounds” (priority 2014, dated 2019).
In brackets after ≈: the same amount, converted by molar mass. Read-outs that look alike come from different tables or passages of the source.

Experiments:
Type in all cases: cell-based
[1] = tested on: S. aureus (MRSA) ATCC 43300; assay: MIC, S. aureus ATCC 43300; conditions: Staphylococcus aureus; Table 2; read-out: MIC S. aureus (MRSA) ATCC 43300 Heterogeneous MRSA strain
[2] = tested on: Neisseria meningitidis ATCC 13090; assay: MIC, N. meningitidis ATCC 13090; conditions: ATCC13090, Table 4, 24 h incubation
[3] = tested on: Escherichia coli ATCC 25922; assay: MIC, broth microdilution, E. coli ATCC 25922; conditions: ATCC25922, Table 1, wild type strain
[4] = tested on: Legionella pneumophila ATCC 33152; assay: microbe, parasite or virus in culture; conditions: ATCC33152, 48 h, read-out: MIC Legionella pneumophila ATCC 33152
[5] = tested on: Moraxella catarrhalis ATCC 25240; assay: MIC, M. catarrhalis ATCC 25240; conditions: ATCC25240, Table 4
S. aureus NRS1 MRSA = assay: MIC, S. aureus NRS1; conditions: Staphylococcus aureus; Table 2; read-out: MIC S. aureus NRS1 MRSA AMG & TET resistant
[6] = tested on: S. aureus SACPX1-SP25 MSSA - FQ resistant; assay: microbe, parasite or virus in culture; conditions: Staphylococcus aureus, ATCC 29213 / MSSA, read-out: MIC S. aureus SACPX1-SP25 MSSA - FQ resistant (isogenic mutant of ATCC 29213)
[7] = tested on: S. aureus NRS127 MRSA LZD resistant; assay: MIC, S. aureus NRS127; conditions: Staphylococcus aureus; Table 2
[8] = tested on: S. aureus NRS482 MRSA FQ resistant; assay: MIC, S. aureus NRS482; conditions: Staphylococcus aureus; Table 2
[9] = tested on: Enterococcus faecium ATCC 19434; assay: MIC, E. faecium ATCC 19434; conditions: ATCC19434, Table 2
[10] = tested on: Haemophilus influenzae ATCC 49247; assay: MIC, H. influenzae ATCC 49247; conditions: ATCC49247, Table 4
[11] = tested on: S. aureus VRS1 MRSA VAN resistant; assay: MIC, S. aureus VRS1; conditions: Staphylococcus aureus, Table 2
[12] = tested on: Neisseria gonorrhoeae ATCC 49226; assay: MIC, N. gonorrhoeae ATCC 49226; conditions: ATCC49226, Table 4, 24 h incubation
[13] = tested on: human hepatic cell line (HepG2 ATCC HB-8065); assay: Human cell viability assay (CellTiter-Glo), HepG2; conditions: HepG2, 24 h incubation, tested over 1-128 μg/mL, read-out: IC50 values against HepG2
In short: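 HepG2 seeded at 20,000 cells/well, then after 24 h given two-fold serial dilutions (1-128 μg/mL, 1% DMSO) in DMEM with 0.001% FBS and 0.3% albumin. After 24 h at 37 °C, ATP luminescence (CellTiter-Glo) read; IC50 is the concentration halving viability.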

[14] = tested on: Staphylococcus aureus ATCC 29213; assay: MIC, broth microdilution, S. aureus ATCC 29213
[15] = tested on: S. epidermidis NRS101 MRSE; assay: MIC, S. epidermidis NRS101; conditions: Staphylococcus epidermidis; Table 2; read-out: MIC S. epidermidis NRS101 MRSE AMG, ERY resistant
[16] = ATCC29213, Table 1, wild type strain, read-out: MIC S. aureus ATCC 29213
[17] = ATCC 29213 / MSSA, Table 2, read-out: MIC S. aureus (MSSA) ATCC 29213 CLSI control strain

Work on `Cc1nc2c(=O)n3c4c(c(N5CCC(CN)C5)c(F)cc4c2o1)OC[C@@H]3C` (stereo partly drawn) [Compound 88, (2S)-6-[3-(aminomethyl)pyrrolidin-1-yl]-7-fluoro-2,12-dimethyl-4,11-dioxa-1,13-diazatetracyclo[7.6.1.0^5,^16.0^10,^14]hexadeca-5(16),6,8,10(14),12-pentaen-15-one] yielded an MIC [1] of 1 to 10 µg/mL (≈ 2.69 to 26.9 µM), an MIC [2] of 1 to 10 µg/mL (≈ 2.69 to 26.9 µM) and an MIC [3] of 1 to 10 µg/mL (≈ 2.69 to 26.9 µM). It also gave an MIC [4] of 1 to 10 µg/mL (≈ 2.69 to 26.9 µM), an MIC [5] of 1 to 10 µg/mL (≈ 2.69 to 26.9 µM) and an MIC (S. aureus NRS1 MRSA) of 1 to 10 µg/mL (≈ 2.69 to 26.9 µM). For the same compound, the MIC [6] was 1 to 10 µg/mL (≈ 2.69 to 26.9 µM), the MIC [7] was 1 to 10 µg/mL (≈ 2.69 to 26.9 µM) and the MIC [8] was 1 to 10 µg/mL (≈ 2.69 to 26.9 µM). It also gave an MIC [9] of 10 to 100 µg/mL (≈ 26.9 to 269 µM), an MIC [10] of 1 to 10 µg/mL (≈ 2.69 to 26.9 µM) and an MIC [11] of 1 to 10 µg/mL (≈ 2.69 to 26.9 µM). For the same compound, the MIC [12] was 1 to 10 µg/mL (≈ 2.69 to 26.9 µM), the IC50 [13] was 10 to 100 µg/mL (≈ 26.9 to 269 µM) and the MIC [14, 16] was less than 1 µg/mL. For the same compound, the MIC [14, 17] was less than 1 µg/mL.
`Cc1nc2c(=O)n3c4c(c(N5CC[C@H](CN)C5)c(F)cc4c2o1)OC[C@@H]3C` [Compound 89, (2S)-6-[(3R)-3-(aminomethyl)pyrrolidin-1-yl]-7-fluoro-2,12-dimethyl-4,11-dioxa-1,13-diazatetracyclo[7.6.1.0^5,^16.0^10,^14]hexadeca-5(16),6,8,10(14),12-pentaen-15-one] showed an MIC [1] of 1 to 10 µg/mL (≈ 2.69 to 26.9 µM), an MIC [3] of 1 to 10 µg/mL (≈ 2.69 to 26.9 µM) and an MIC [4] of 1 to 10 µg/mL (≈ 2.69 to 26.9 µM). It also gave an MIC (S. aureus NRS1 MRSA) of 1 to 10 µg/mL (≈ 2.69 to 26.9 µM), an MIC [6] of 1 to 10 µg/mL (≈ 2.69 to 26.9 µM) and an MIC [7] of 10 to 100 µg/mL (≈ 26.9 to 269 µM). For the same compound, the MIC [8] was 1 to 10 µg/mL (≈ 2.69 to 26.9 µM), the MIC [9] was 10 to 100 µg/mL (≈ 26.9 to 269 µM) and the MIC [10] was 1 to 10 µg/mL (≈ 2.69 to 26.9 µM). The MIC [11] was 1 to 10 µg/mL (≈ 2.69 to 26.9 µM), the IC50 [13] was 10 to 100 µg/mL (≈ 26.9 to 269 µM) and the MIC [14, 16] was 1 to 10 µg/mL (≈ 2.69 to 26.9 µM). For the same compound, the MIC [14, 17] was 1 to 10 µg/mL (≈ 2.69 to 26.9 µM).
Compound `Cc1nc2c(=O)n3c4c(c(N5CC[C@@H](CN)C5)c(F)cc4c2o1)OC[C@@H]3C` [Compound 90, (2S)-6-[(3S)-3-(aminomethyl)pyrrolidin-1-yl]-7-fluoro-2,12-dimethyl-4,11-dioxa-1,13-diazatetracyclo[7.6.1.0^5,^16.0^10,^14]hexadeca-5(16),6,8,10(14),12-pentaen-15-one] has an MIC [1] of less than 1 µg/mL, an MIC [3] of 1 to 10 µg/mL (≈ 2.69 to 26.9 µM) and an MIC [4] of 1 to 10 µg/mL (≈ 2.69 to 26.9 µM). For the same compound, the MIC [5] was 1 to 10 µg/mL (≈ 2.69 to 26.9 µM), the MIC (S. aureus NRS1 MRSA) was 1 to 10 µg/mL (≈ 2.69 to 26.9 µM) and the MIC [6] was 1 to 10 µg/mL (≈ 2.69 to 26.9 µM). For the same compound, the MIC [7] was 1 to 10 µg/mL (≈ 2.69 to 26.9 µM), the MIC [8] was 1 to 10 µg/mL (≈ 2.69 to 26.9 µM) and the MIC [10] was 1 to 10 µg/mL (≈ 2.69 to 26.9 µM). The MIC [11] was 10 to 100 µg/mL (≈ 26.9 to 269 µM), the IC50 [13] was 10 to 100 µg/mL (≈ 26.9 to 269 µM) and the MIC [14, 16] was less than 1 µg/mL. For the same compound, the MIC [14, 17] was less than 1 µg/mL.
In the case of `C[C@H]1COc2c(-c3cc(F)c(N)cc3F)ccc3c4ocnc4c(=O)n1c23` [Compound 93, (2S)-6-(4-amino-2,5-difluorophenyl)-2-methyl-4,11-dioxa-1,13-diazatetracyclo[7.6.1.0^5,^16.0^10,^14]hexadeca-5(16),6,8,10(14),12-pentaen-15-one], the MIC [1] is reported as less than 1 µg/mL, the MIC [3] is reported as 1 to 10 µg/mL (≈ 2.71 to 27.1 µM) and the MIC [4] is reported as less than 1 µg/mL. The MIC [5] was 1 to 10 µg/mL (≈ 2.71 to 27.1 µM), the MIC [6] was 1 to 10 µg/mL (≈ 2.71 to 27.1 µM) and the MIC [8] was 1 to 10 µg/mL (≈ 2.71 to 27.1 µM). For the same compound, the MIC [9] was 10 to 100 µg/mL (≈ 27.1 to 271 µM), the MIC [10] was less than 1 µg/mL and the MIC [11] was 1 to 10 µg/mL (≈ 2.71 to 27.1 µM). For the same compound, the MIC [12] was less than 1 µg/mL, the IC50 [13] was greater than 100 µg/mL and the MIC [14, 16] was 1 to 10 µg/mL (≈ 2.71 to 27.1 µM). The MIC [14, 17] was 1 to 10 µg/mL (≈ 2.71 to 27.1 µM).
`C[C@H]1COc2c(-c3ccc(N)nc3)ccc3c4ocnc4c(=O)n1c23` [Compound 95, (-2S)-6-(6-aminopyridin-3-yl)-2-methyl-4,11-dioxa-1,13-diazatetracyclo[7.6.1.0^5,^16.0^10,^14]hexadeca-5(16),6,8,10(14),12-pentaen-15-one] was tested, and the MIC [1] was 1 to 10 µg/mL (≈ 2.99 to 29.9 µM), the MIC [3] was 1 to 10 µg/mL (≈ 2.99 to 29.9 µM) and the MIC (S. aureus NRS1 MRSA) was 1 to 10 µg/mL (≈ 2.99 to 29.9 µM). For the same compound, the MIC [7] was 1 to 10 µg/mL (≈ 2.99 to 29.9 µM), the MIC [8] was 1 to 10 µg/mL (≈ 2.99 to 29.9 µM) and the MIC [9] was 10 to 100 µg/mL (≈ 29.9 to 299 µM). It also gave an MIC [10] of less than 1 µg/mL, an MIC [15] of 1 to 10 µg/mL (≈ 2.99 to 29.9 µM) and an MIC [11] of 1 to 10 µg/mL (≈ 2.99 to 29.9 µM). For the same compound, the IC50 [13] was greater than 100 µg/mL, the MIC [14, 16] was 1 to 10 µg/mL (≈ 2.99 to 29.9 µM) and the MIC [14, 17] was 1 to 10 µg/mL (≈ 2.99 to 29.9 µM).
For `Cc1c(-c2cc(F)c(N)cc2F)ccc2c3oc(CN)nc3c(=O)n(C3CC3)c12` [Compound 100, 7-(4-amino-2,5-difluoro-phenyl)-2-(aminomethyl)-5-cyclopropyl-6-methyl-oxazolo[4,5-c]quinolin-4-one], the MIC [1] was less than 1 µg/mL, the MIC [2] was less than 1 µg/mL and the MIC [3] was less than 1 µg/mL. It also gave an MIC [4] of less than 1 µg/mL, an MIC [5] of less than 1 µg/mL and an MIC (S. aureus NRS1 MRSA) of less than 1 µg/mL. The MIC [6] was less than 1 µg/mL, the MIC [7] was 1 to 10 µg/mL (≈ 2.52 to 25.2 µM) and the MIC [8] was less than 1 µg/mL. It also gave an MIC [9] of 1 to 10 µg/mL (≈ 2.52 to 25.2 µM), an MIC [10] of less than 1 µg/mL and an MIC [15] of less than 1 µg/mL. For the same compound, the MIC [11] was 1 to 10 µg/mL (≈ 2.52 to 25.2 µM), the MIC [12] was less than 1 µg/mL and the IC50 [13] was greater than 100 µg/mL. It also gave an MIC [14, 16] of less than 1 µg/mL and an MIC [14, 17] of less than 1 µg/mL.
For `Cc1c(-c2cc(F)c(N)cc2F)ccc2c3scnc3c(=O)n(C3CC3)c12` [Compound 108, 7-(4-amino-2,5-difluorophenyl)-5-cyclopropyl-6-methyl-thiazolo[4,5-c]quinolin-4-one], the MIC [1] was less than 1 µg/mL, the MIC [3] was 1 to 10 µg/mL (≈ 2.61 to 26.1 µM) and the MIC (S. aureus NRS1 MRSA) was less than 1 µg/mL. The MIC [6] was less than 1 µg/mL, the MIC [7] was less than 1 µg/mL and the MIC [8] was less than 1 µg/mL. The MIC [9] was 10 to 100 µg/mL (≈ 26.1 to 261 µM), the MIC [10] was less than 1 µg/mL and the MIC [15] was less than 1 µg/mL. It also gave an MIC [11] of less than 1 µg/mL, an IC50 [13] of 10 to 100 µg/mL (≈ 26.1 to 261 µM) and an MIC [14, 16] of less than 1 µg/mL. The MIC [14, 17] was less than 1 µg/mL.
